Experiments:
Format in all cases: in vivo
Echinochloa crus-galli [1] = experiment: Test Example 11: herbicidal effect test by soil treatment in paddy field; conditions: 120 g/10a active ingredient, 14 days after treatment
Summary of the method: (§1)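 Weed suppression rate (%) was calculated as (1 − mean treated dry weight / mean untreated dry weight) × 100 at 14 days after treatment, two replicates per plot. Seeds were sown at 0–1 cm in flooded (about 3 cm) puddled paddy soil and treated immediately at 120 g active ingredient per 10 are.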

Lindernia pyxidaria [2] = experiment: as above; conditions: 120 g/10a active ingredient, 14 days after treatment
Summary of the method: as §1

Monochoria vaginalis [3] = experiment: as above; conditions: 120 g/10a active ingredient, 14 days after treatment
Summary of the method: as §1

Scirpus juncoides [4] = experiment: as above; conditions: 120 g/10a active ingredient, 14 days after treatment
Summary of the method: as §1

Echinochloa crus-galli [5] = experiment: Test Example 12: herbicidal effect test by treatment during growing period in paddy field; conditions: 120 g/10a; treatment seven days after sowing in flooded paddy pot; assessed 14 days after treatment
Summary of the method: (§2)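 Read-out: weed suppression (%) = (1 − treated/untreated mean dry weight) × 100, scored 14 days after treatment with two replications. Pots held puddled paddy soil, 30 seeds per species sown 0–1 cm, flooded ~3 cm. Post-emergence dropwise water application at 7 days after sowing, 120 g a.i./10 are.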

Lindernia pyxidaria [6] = experiment: as above; conditions: 120 g/10a; treatment seven days after sowing in flooded paddy pot; assessed 14 days after treatment
Summary of the method: as §2

Monochoria vaginalis [7] = experiment: as above; conditions: 120 g/10a; treatment seven days after sowing in flooded paddy pot; assessed 14 days after treatment
Summary of the method: as §2

Scirpus juncoides [8] = experiment: as above; conditions: 120 g/10a; treatment seven days after sowing in flooded paddy pot; assessed 14 days after treatment
Summary of the method: as §2

Amaranthus viridis = experiment: Test Example 13: herbicidal effect test by soil treatment in upland field; conditions: 120 g/10a, 14 days after treatment
Procedure: (§3) A pot having a size of 36 cm^2 was filled with field soil (alluvial soil) and after mixing the soil of the surface layer of 1 cm with 20 grains of each weed seed of crabgrass, Echinochloa crus-galli, Chenopodium album and Amaranthus viridis, the surface layer was pressed lightly. One day after the sowing, an emulsifiable concentrate prepared according to Formulation Example 15 by using the compound shown in Table 11 below was diluted with water, and the water-diluted formulation was sprayed on the soil surface at a ratio of 100 liter per 10 are. The application rate of the active ingredient, by conversion, corresponded to 120 g per 10 are. Fourteen Days after the formulation treatment, the herbicidal effect was evaluated by the same criteria as in Test Example 11.

Chenopodium album = experiment: as above; conditions: 120 g/10a, 14 days after treatment
Procedure: as §3

Echinochloa crus-galli [9] = experiment: as above; conditions: 120 g/10a, 14 days after treatment
Procedure: as §3

crabgrass = experiment: as above; conditions: 120 g/10a, 14 days after treatment
Procedure: as §3

For `Cc1cc(Cl)ccc1N(C(=O)n1cnn(S(=O)(=O)C2CCCCC2)c1=O)C(C)C` [Compound 11-309], the “Weed suppression rate (%) Echinochloa crus-galli” value (Echinochloa crus-galli [1]) was 90%, the “Weed suppression rate (%) Lindemia pyxidaria” value (Lindernia pyxidaria [2]) was 80% and the “Weed suppression rate (%) Monochoria vaginalis” value (Monochoria vaginalis [3]) was 80%. For the same molecule, the “Weed suppression rate (%) Scirpus juncoides” value (Scirpus juncoides [4]) was 90%, the “Weed suppression rate (%) Echinochloa crus-galli” value (Echinochloa crus-galli [5]) was 90% and the “Weed suppression rate (%) Lindemia pyxidaria” value (Lindernia pyxidaria [6]) was 80%. For the same molecule, the “Weed suppression rate (%) Monochoria vaginalis” value (Monochoria vaginalis [7]) was 80%, the “Weed suppression rate (%) Scirpus juncoides” value (Scirpus juncoides [8]) was 90% and the “herbicidal effect, Amaranthus viridis” value (Amaranthus viridis) was 90%. For the same molecule, the “herbicidal effect, Chenopodium album” value (Chenopodium album) was 80%, the “herbicidal effect, Echinochloa crus-galli” value (Echinochloa crus-galli [9]) was 80% and the “herbicidal effect, Crabgrass” value (crabgrass) was 90%.

`CC(C)N(C(=O)n1cnn(S(=O)(=O)C2CCCCC2)c1=O)c1ccccc1F` [Compound 11-284] was tested, and the “Weed suppression rate (%) Echinochloa crus-galli” value (Echinochloa crus-galli [1]) was 100%, the “Weed suppression rate (%) Lindemia pyxidaria” value (Lindernia pyxidaria [2]) was 100% and the “Weed suppression rate (%) Monochoria vaginalis” value (Monochoria vaginalis [3]) was 100%. The “Weed suppression rate (%) Scirpus juncoides” value (Scirpus juncoides [4]) was 100%, the “Weed suppression rate (%) Echinochloa crus-galli” value (Echinochloa crus-galli [5]) was 100% and the “Weed suppression rate (%) Lindemia pyxidaria” value (Lindernia pyxidaria [6]) was 100%. For the same molecule, the “Weed suppression rate (%) Monochoria vaginalis” value (Monochoria vaginalis [7]) was 100%, the “Weed suppression rate (%) Scirpus juncoides” value (Scirpus juncoides [8]) was 90% and the “herbicidal effect, Amaranthus viridis” value (Amaranthus viridis) was 90%. For the same molecule, the “herbicidal effect, Chenopodium album” value (Chenopodium album) was 80%, the “herbicidal effect, Echinochloa crus-galli” value (Echinochloa crus-galli [9]) was 80% and the “herbicidal effect, Crabgrass” value (crabgrass) was 90%.

In the case of `CCc1ccc(S(=O)(=O)n2ncn(C(=O)N(CC)CC)c2=O)cc1` [Compound 11-665], the “Weed suppression rate (%) Echinochloa crus-galli” value (Echinochloa crus-galli [1]) is reported as 80%, the “Weed suppression rate (%) Lindemia pyxidaria” value (Lindernia pyxidaria [2]) is reported as 40% and the “Weed suppression rate (%) Monochoria vaginalis” value (Monochoria vaginalis [3]) is reported as 40%. The “Weed suppression rate (%) Scirpus juncoides” value (Scirpus juncoides [4]) was 40%, the “Weed suppression rate (%) Echinochloa crus-galli” value (Echinochloa crus-galli [5]) was 90% and the “Weed suppression rate (%) Lindemia pyxidaria” value (Lindernia pyxidaria [6]) was 60%. For the same molecule, the “Weed suppression rate (%) Monochoria vaginalis” value (Monochoria vaginalis [7]) was 60%, the “Weed suppression rate (%) Scirpus juncoides” value (Scirpus juncoides [8]) was 60% and the “herbicidal effect, Amaranthus viridis” value (Amaranthus viridis) was 0%. For the same molecule, the “herbicidal effect, Chenopodium album” value (Chenopodium album) was 0%, the “herbicidal effect, Echinochloa crus-galli” value (Echinochloa crus-galli [9]) was 80% and the “herbicidal effect, Crabgrass” value (crabgrass) was 80%.

In the case of `CC(C)N(C(=O)n1cnn(S(=O)(=O)c2cccs2)c1=O)c1c(F)cccc1F` [Compound 11-1024], the “Weed suppression rate (%) Echinochloa crus-galli” value (Echinochloa crus-galli [1]) is reported as 100%, the “Weed suppression rate (%) Lindemia pyxidaria” value (Lindernia pyxidaria [2]) is reported as 80% and the “Weed suppression rate (%) Monochoria vaginalis” value (Monochoria vaginalis [3]) is reported as 70%. The “Weed suppression rate (%) Scirpus juncoides” value (Scirpus juncoides [4]) was 80%, the “Weed suppression rate (%) Echinochloa crus-galli” value (Echinochloa crus-galli [5]) was 100% and the “Weed suppression rate (%) Lindemia pyxidaria” value (Lindernia pyxidaria [6]) was 80%. For the same molecule, the “Weed suppression rate (%) Monochoria vaginalis” value (Monochoria vaginalis [7]) was 90%, the “Weed suppression rate (%) Scirpus juncoides” value (Scirpus juncoides [8]) was 90% and the “herbicidal effect, Amaranthus viridis” value (Amaranthus viridis) was 60%. For the same molecule, the “herbicidal effect, Chenopodium album” value (Chenopodium album) was 60%, the “herbicidal effect, Echinochloa crus-galli” value (Echinochloa crus-galli [9]) was 70% and the “herbicidal effect, Crabgrass” value (crabgrass) was 100%.

For `Cc1cc(F)ccc1N(C(=O)n1cnn(S(=O)(=O)C2CC2)c1=O)C(C)C` [Compound 11-211], the “Weed suppression rate (%) Echinochloa crus-galli” value (Echinochloa crus-galli [1]) was 100%, the “Weed suppression rate (%) Lindemia pyxidaria” value (Lindernia pyxidaria [2]) was 100% and the “Weed suppression rate (%) Monochoria vaginalis” value (Monochoria vaginalis [3]) was 80%. The “Weed suppression rate (%) Scirpus juncoides” value (Scirpus juncoides [4]) was 90%, the “Weed suppression rate (%) Echinochloa crus-galli” value (Echinochloa crus-galli [5]) was 100% and the “Weed suppression rate (%) Lindemia pyxidaria” value (Lindernia pyxidaria [6]) was 80%. For the same molecule, the “Weed suppression rate (%) Monochoria vaginalis” value (Monochoria vaginalis [7]) was 80%, the “Weed suppression rate (%) Scirpus juncoides” value (Scirpus juncoides [8]) was 100% and the “herbicidal effect, Amaranthus viridis” value (Amaranthus viridis) was 70%. The “herbicidal effect, Chenopodium album” value (Chenopodium album) was 70%, the “herbicidal effect, Echinochloa crus-galli” value (Echinochloa crus-galli [9]) was 100% and the “herbicidal effect, Crabgrass” value (crabgrass) was 100%.

For `CCN(CC)C(=O)n1cnn(S(=O)(=O)c2ccc(C)cc2)c1=O` [Compound 11-625], the “Weed suppression rate (%) Echinochloa crus-galli” value (Echinochloa crus-galli [1]) was 100%, the “Weed suppression rate (%) Lindemia pyxidaria” value (Lindernia pyxidaria [2]) was 80% and the “Weed suppression rate (%) Monochoria vaginalis” value (Monochoria vaginalis [3]) was 40%. For the same molecule, the “Weed suppression rate (%) Scirpus juncoides” value (Scirpus juncoides [4]) was 60%, the “herbicidal effect, Amaranthus viridis” value (Amaranthus viridis) was 0% and the “herbicidal effect, Chenopodium album” value (Chenopodium album) was 0%. The “herbicidal effect, Echinochloa crus-galli” value (Echinochloa crus-galli [9]) was 80% and the “herbicidal effect, Crabgrass” value (crabgrass) was 80%.

`CC(C)N(C(=O)n1cnn(S(=O)(=O)c2ccc(Br)cc2)c1=O)c1ccc(F)cc1F` [Compound 11-616] was tested, and the “Weed suppression rate (%) Echinochloa crus-galli” value (Echinochloa crus-galli [1]) was 90%, the “Weed suppression rate (%) Lindemia pyxidaria” value (Lindernia pyxidaria [2]) was 90% and the “Weed suppression rate (%) Monochoria vaginalis” value (Monochoria vaginalis [3]) was 90%. The “Weed suppression rate (%) Scirpus juncoides” value (Scirpus juncoides [4]) was 90%, the “Weed suppression rate (%) Echinochloa crus-galli” value (Echinochloa crus-galli [5]) was 50% and the “Weed suppression rate (%) Lindemia pyxidaria” value (Lindernia pyxidaria [6]) was 80%. The “Weed suppression rate (%) Monochoria vaginalis” value (Monochoria vaginalis [7]) was 80%, the “Weed suppression rate (%) Scirpus juncoides” value (Scirpus juncoides [8]) was 60% and the “herbicidal effect, Amaranthus viridis” value (Amaranthus viridis) was 80%. For the same molecule, the “herbicidal effect, Chenopodium album” value (Chenopodium album) was 80%, the “herbicidal effect, Echinochloa crus-galli” value (Echinochloa crus-galli [9]) was 80% and the “herbicidal effect, Crabgrass” value (crabgrass) was 40%.

`CC(C)N(C(=O)n1cnn(S(=O)(=O)c2ccc(F)cc2)c1=O)c1c(F)cccc1F` [Compound 11-477] was tested, and the “Weed suppression rate (%) Echinochloa crus-galli” value (Echinochloa crus-galli [1]) was 100%, the “Weed suppression rate (%) Lindemia pyxidaria” value (Lindernia pyxidaria [2]) was 90% and the “Weed suppression rate (%) Monochoria vaginalis” value (Monochoria vaginalis [3]) was 70%. For the same molecule, the “Weed suppression rate (%) Scirpus juncoides” value (Scirpus juncoides [4]) was 100%, the “Weed suppression rate (%) Echinochloa crus-galli” value (Echinochloa crus-galli [5]) was 100% and the “Weed suppression rate (%) Lindemia pyxidaria” value (Lindernia pyxidaria [6]) was 60%. The “Weed suppression rate (%) Monochoria vaginalis” value (Monochoria vaginalis [7]) was 70%, the “Weed suppression rate (%) Scirpus juncoides” value (Scirpus juncoides [8]) was 70% and the “herbicidal effect, Amaranthus viridis” value (Amaranthus viridis) was 70%. For the same molecule, the “herbicidal effect, Chenopodium album” value (Chenopodium album) was 70%, the “herbicidal effect, Echinochloa crus-galli” value (Echinochloa crus-galli [9]) was 100% and the “herbicidal effect, Crabgrass” value (crabgrass) was 100%.

In the case of `CC(C)N(C(=O)n1cnn(S(=O)(=O)c2cccnc2)c1=O)c1ccc(F)cc1F` [Compound 11-985], the “Weed suppression rate (%) Echinochloa crus-galli” value (Echinochloa crus-galli [1]) is reported as 90%, the “Weed suppression rate (%) Lindemia pyxidaria” value (Lindernia pyxidaria [2]) is reported as 60% and the “Weed suppression rate (%) Monochoria vaginalis” value (Monochoria vaginalis [3]) is reported as 40%. The “Weed suppression rate (%) Scirpus juncoides” value (Scirpus juncoides [4]) was 40%, the “herbicidal effect, Amaranthus viridis” value (Amaranthus viridis) was 0% and the “herbicidal effect, Chenopodium album” value (Chenopodium album) was 0%. The “herbicidal effect, Echinochloa crus-galli” value (Echinochloa crus-galli [9]) was 80% and the “herbicidal effect, Crabgrass” value (crabgrass) was 80%.

`CCN(CC)C(=O)n1cnn(S(=O)(=O)c2ccc(C(C)(C)C)cc2)c1=O` [Compound 11-670] was tested, and the “Weed suppression rate (%) Echinochloa crus-galli” value (Echinochloa crus-galli [1]) was 50%, the “Weed suppression rate (%) Lindemia pyxidaria” value (Lindernia pyxidaria [2]) was 70% and the “Weed suppression rate (%) Monochoria vaginalis” value (Monochoria vaginalis [3]) was 50%. For the same molecule, the “Weed suppression rate (%) Scirpus juncoides” value (Scirpus juncoides [4]) was 60%, the “herbicidal effect, Amaranthus viridis” value (Amaranthus viridis) was 0% and the “herbicidal effect, Chenopodium album” value (Chenopodium album) was 0%. The “herbicidal effect, Echinochloa crus-galli” value (Echinochloa crus-galli [9]) was 70% and the “herbicidal effect, Crabgrass” value (crabgrass) was 70%.

From patent US11076595B2, “1-(n,n-disubstituted carbamoyl) 4-(substituted sulfonyl)triazolin-5-one derivative, 4-(n,n-disubstituted carbamoyl) 1-(substituted sulfonyl)triazolin-5-one derivative, and herbicide containing said derivative as active ingredient” (HOKKO CHEMICAL INDUSTRY CO., LTD., priority 2017, dated 2021)
